For experiment [1], the system named is Colletotrichum gloeosporioides. The experiment in a line: Activity against Colletotrichum gloeosporioides in plates. Format: cell-based. How it is done: (§1) Colby's method is used to determine if synergy exists for a combination of active ingredients. According to Colby, the expected action (E) of active ingredients A+B is: [formula] • where E=expected efficacy, A and B=the efficacy of two active ingredients A and B at a given dose. When the percentage of control observed (O) for the combination is greater than the expected (E) percentage, there is a synergistic effect. The synergism ratio (R) is calculated as the ratio between the expected values and observed values. […] The compositions were diluted with water. Each formulation with active ingredient is diluted with water and biological efficacy trials on target fungi are conducted.

In experiment [2] the test system is Ramularia collo-cygni. The experiment in a line: Activity against Ramularia collo-cygni in plates. Format: cell-based. On the procedure: as §1
Experiment [3] deals with Alternaria solani. Kind of experiment: Activity against Alternaria solani in plates. The format is cell-based. How it is done: as §1
Experiment [4] deals with Venturia inaequalis. The experiment in a line: Apple fruits classes of damage for Venturia inaequalis control. Format: in vivo. The conditions noted are these: 14 days after last application; for Class 1 (%): class 1 = no damage; for Class 2 (%): class 2 = 2-3 spots per fruit; for Class 3 (%): class 3 = more than 3 spots per fruit. On the procedure: The fungicidal compounds A (sulphur) and B (mix partner) are formulated as equivalent compositions to eliminate the effects of differing formulation inerts on biological activity. Efficacy of the fungicidal compositions is evaluated with reference to a scale of 0% to 100% in comparison with untreated control plots. 0 means no control and 100 means complete control of the target disease.
(§2) The experiments were conducted by applying commercially available formulations of Sulphur and other mixture partners, alone or with their tank-mixed compositions. The compositions were diluted with water.
(§3) Each formulation with active ingredient is diluted with water and biological efficacy trials on target fungi are conducted.

Experiment [5] has as its system Zymoseptoria tritici. Kind of experiment: Wheat yield increase when applied for Zymoseptoria tritici control. The format is in vivo. On the procedure: as §2, §3
In experiment [6] the test system is Venturia inaequalis. Kind of experiment: Sulphur + Difenoconazole on apple fruits incidence for Venturia inaequalis control. The format is in vivo. The conditions noted are these: 4 days after last application. On the procedure:
as §1

Experiment [7] has as its system Botrytis cinerea. The experiment in a line: Activity against Botrytis cinerea in plates. Format: cell-based. On the procedure: as §1
The subject of experiment [8] is Tetranychus urticae. The experiment in a line: Activity of Sulphur + Fluazinam against Tetranychus urticae in plates. Format: in vivo. How it is done: (§4) Colby's method is used to determine if synergy exists for a combination of active ingredients. According to Colby, the expected action (E) of active ingredients A+B is:
(§5) [formula] • where E=expected efficacy, A and B=the efficacy of two active ingredients A and B at a given dose.
(§6) When the percentage of control observed (O) for the combination is greater than the expected (E) percentage, there is a synergistic effect. The synergism ratio (R) is calculated as the ratio between the expected values and observed values.
(§7) Furthermore, the miticidal and insecticidal efficacy of the compositions are also evaluated with reference to a scale of 0% to 100% in comparison with untreated control plots. 0 means no control and 100 means complete control of the target pest.
as §2
(§8) Each formulation with active ingredient is diluted with water and biological efficacy trials on target pest are conducted.

Experiment [9] relates to Trialeurodes vaporariorum. Kind of experiment: Activity of Sulphur + Fluazinam against Trialeurodes vaporariorum plates. Format: in vivo. How it is done: as §4, §5, §6, §7, §2, §8

Consider `CC1COC(Cn2cncn2)(c2ccc(Oc3ccc(Cl)cc3)cc2Cl)O1` (centres unmarked) [Difenoconazole], for which the “Observed % control (O)” value in experiment [1] (rate 25 g/ha) amounted to 58.4%; in [2] (rate 25 g/ha), 73.9%; in experiment [3] (rate 25 g/ha) it was 60.6%; in [6] (rate 37.5 g/ha) it was 67.90%; in experiment [6] (rate 50 g/ha) it was 69.40%; in experiment [7] (rate 25 g/ha), 62.5%. Besides, the “Class 1 (%)” value is on record as 92.5% in [4] (rate 37.5 g/ha) and 93.5% in [4] (rate 50 g/ha). Besides, the “Class 2 (%)” value in experiment [4] (rate 37.5 g/ha) is 5.2%; in experiment [4] (rate 50 g/ha), 3.3%. For the same compound, the “Class 3 (%)” value is 2.3% in experiment [4] (rate 37.5 g/ha) and 3.3% in [4] (rate 50 g/ha). Besides, the “Yield increase versus the untreated (%)” value in experiment [5] (untreated = 100, rate 75 g/ha) was found to be 102.26%; in [5] (untreated = 100, rate 125 g/ha), 109.14%.

Consider Fluazinam, for which the “Observed % control (O)” value is on record as 60.8% in experiment [1] (rate 150 g/ha); 36.3% in [2] (rate 150 g/ha); 57.5% in experiment [3] (rate 150 g/ha); 27.5% in experiment [8] (200 g ai/ha); 32.5% in [8] (250 g ai/ha); 32.5% in [8] (300 g ai/ha). Besides, the “Observed % control (O)” value in experiment [8] (350 g ai/ha) is given as 37.5%; in experiment [7] (rate 150 g/ha), 64.4%; in experiment [9] (200 g ai/ha), 21.7%; in experiment [9] (250 g ai/ha) it was 23.6%; in experiment [9] (300 g ai/ha), 24.1%; in [9] (350 g ai/ha), 33.6%.

The values are drawn from US20260256144A1, “FUNGICIDAL MIXTURE COMPOSITION COMPRISING SULPHUR” (ADAMA MAKHTESHIM LTD., priority 2022, published 2026).
